Source: the NIST ThermoML archive (doi:10.1021/je060107n)
Numbers after ± are expanded uncertainties.

Experiment: mn = molality of the nth substance listed, in mol/kg
Conditions: 101 kPa, Liquid; for mass density: Pycnometric method; for viscosity: Capillary tube (Ostwald / Ubbelohde) method; for speed of sound: Linear variable-path acoustic interferometer

## CC(=O)[O-].CC(=O)[O-].[Mg+2] [magnesium acetate] + O
305.5 K, m1 = 1.866
  mass density: 1115.1 ± 0.8 kg/m3
305.65 K, m1 = 0.646
  mass density: 1041.8 ± 0.7 kg/m3
305.85 K, m1 = 1.354
  mass density: 1086.1 ± 0.7 kg/m3
305.85 K, m1 = 5.732
  mass density: 1263.4 ± 0.9 kg/m3
305.95 K, m1 = 0.0831
  mass density: 1001 ± 0.6 kg/m3
305.95 K, m1 = 0.8751
  mass density: 1056.2 ± 0.7 kg/m3
306.3 K, m1 = 0.4247
  mass density: 1026.1 ± 0.7 kg/m3
306.4 K, m1 = 3.043
  mass density: 1171.3 ± 0.8 kg/m3
306.4 K, m1 = 3.437
  mass density: 1191.7 ± 0.8 kg/m3
306.55 K, m1 = 1.608
  mass density: 1101.3 ± 0.7 kg/m3
306.65 K, m1 = 5.165
  mass density: 1247 ± 0.9 kg/m3
306.75 K, m1 = 3.819
  mass density: 1203.4 ± 0.8 kg/m3
306.9 K, m1 = 0.1671
  mass density: 1007 ± 0.6 kg/m3
307.25 K, m1 = 2.134
  mass density: 1128.6 ± 0.8 kg/m3
307.5 K, m1 = 2.622
  mass density: 1152.1 ± 0.7 kg/m3
307.6 K, m1 = 4.547
  mass density: 1227.3 ± 0.9 kg/m3
307.65 K, m1 = 0.0414
  mass density: 997.17 ± 0.65 kg/m3
307.75 K, m1 = 1.327
  mass density: 1084 ± 0.7 kg/m3
308.05 K, m1 = 1.866
  mass density: 1114 ± 0.7 kg/m3
308.1 K, m1 = 1.106
  mass density: 1071.4 ± 0.7 kg/m3
308.15 K, m1 = 0.0414
  viscosity: 0.7529 ± 0.01 mPa·s
  speed of sound: 1523.3 ± 1.9 m/s
308.15 K, m1 = 0.0831
  viscosity: 0.7775 ± 0.01 mPa·s
  speed of sound: 1530.3 ± 1.9 m/s
308.15 K, m1 = 0.1671
  viscosity: 0.8306 ± 0.011 mPa·s
  speed of sound: 1541.4 ± 1.9 m/s
308.15 K, m1 = 0.4247
  viscosity: 1.021 ± 0.014 mPa·s
  speed of sound: 1575.1 ± 1.9 m/s
308.15 K, m1 = 0.646
  viscosity: 1.231 ± 0.016 mPa·s
  speed of sound: 1601.9 ± 1.9 m/s
308.15 K, m1 = 0.8751
  viscosity: 1.45 ± 0.019 mPa·s
  speed of sound: 1631.2 ± 1.9 m/s
308.15 K, m1 = 1.106
  viscosity: 1.774 ± 0.024 mPa·s
  speed of sound: 1655.9 ± 1.9 m/s
308.15 K, m1 = 1.354
  viscosity: 2.139 ± 0.029 mPa·s
  speed of sound: 1677.9 ± 2 m/s
308.15 K, m1 = 1.608
  viscosity: 2.139 ± 0.029 mPa·s
  speed of sound: 1705 ± 2 m/s
308.15 K, m1 = 1.866
  viscosity: 3.181 ± 0.043 mPa·s
  speed of sound: 1728.9 ± 2 m/s
308.15 K, m1 = 2.134
  viscosity: 3.943 ± 0.054 mPa·s
  speed of sound: 1754.2 ± 2 m/s
308.15 K, m1 = 2.411
  viscosity: 5.121 ± 0.071 mPa·s
  speed of sound: 1782.5 ± 2 m/s
308.15 K, m1 = 2.622
  viscosity: 5.819 ± 0.081 mPa·s
  speed of sound: 1791.3 ± 2 m/s
308.15 K, m1 = 3.043
  viscosity: 8.11 ± 0.12 mPa·s
  speed of sound: 1819.5 ± 2.1 m/s
308.15 K, m1 = 3.437
  viscosity: 12.3 ± 0.18 mPa·s
  speed of sound: 1847.8 ± 2.1 m/s
308.15 K, m1 = 4.001
  viscosity: 19.17 ± 0.29 mPa·s
308.15 K, m1 = 4.563
  viscosity: 31.43 ± 0.5 mPa·s
308.15 K, m1 = 4.929
  viscosity: 39.25 ± 0.67 mPa·s
308.15 K, m1 = 5.41
  viscosity: 72.56 ± 0.96 mPa·s
308.15 K, m1 = 5.732
  viscosity: 96.97 ± 2 mPa·s
  speed of sound: 1914.4 ± 2.1 m/s
308.15 K, m1 = 6.187
  viscosity: 175.6 ± 4.6 mPa·s
308.15 K, m1 = 3.819
  speed of sound: 1862.6 ± 2.1 m/s
308.15 K, m1 = 4.547
  speed of sound: 1888.8 ± 2.1 m/s
308.15 K, m1 = 5.165
  speed of sound: 1908 ± 2.1 m/s
308.45 K, m1 = 6.187
  mass density: 1274.5 ± 0.9 kg/m3
308.65 K, m1 = 0.646
  mass density: 1040.7 ± 0.7 kg/m3
308.65 K, m1 = 1.354
  mass density: 1085 ± 0.7 kg/m3
308.7 K, m1 = 3.437
  mass density: 1190.5 ± 0.9 kg/m3
308.75 K, m1 = 0.8751
  mass density: 1055.2 ± 0.7 kg/m3
308.75 K, m1 = 3.043
  mass density: 1170.1 ± 0.8 kg/m3
308.85 K, m1 = 5.165
  mass density: 1245.6 ± 0.9 kg/m3
308.9 K, m1 = 0.0831
  mass density: 1000 ± 0.6 kg/m3
308.95 K, m1 = 3.819
  mass density: 1202.2 ± 0.8 kg/m3
309.1 K, m1 = 2.411
  mass density: 1142.9 ± 0.8 kg/m3
309.25 K, m1 = 0.4247
  mass density: 1025.2 ± 0.7 kg/m3
309.6 K, m1 = 1.608
  mass density: 1100.1 ± 0.7 kg/m3
309.7 K, m1 = 0.1671
  mass density: 1006 ± 0.7 kg/m3
309.7 K, m1 = 4.547
  mass density: 1225.9 ± 0.9 kg/m3
309.7 K, m1 = 5.732
  mass density: 1260.8 ± 0.9 kg/m3
309.8 K, m1 = 2.134
  mass density: 1127.4 ± 0.7 kg/m3
309.95 K, m1 = 2.622
  mass density: 1151 ± 0.7 kg/m3
310.45 K, m1 = 6.187
  mass density: 1273.1 ± 0.9 kg/m3
310.6 K, m1 = 1.327
  mass density: 1082.8 ± 0.7 kg/m3
310.7 K, m1 = 1.106
  mass density: 1070.3 ± 0.7 kg/m3
310.8 K, m1 = 6.545
  mass density: 1280.7 ± 0.9 kg/m3
310.85 K, m1 = 0.0414
  mass density: 996.1 ± 0.65 kg/m3
310.85 K, m1 = 3.437
  mass density: 1189.2 ± 0.8 kg/m3
310.95 K, m1 = 5.165
  mass density: 1244.3 ± 0.9 kg/m3
311.2 K, m1 = 3.819
  mass density: 1201 ± 0.8 kg/m3
311.25 K, m1 = 3.043
  mass density: 1168.8 ± 0.8 kg/m3
311.35 K, m1 = 0.646
  mass density: 1039.6 ± 0.7 kg/m3
311.4 K, m1 = 1.354
  mass density: 1083.9 ± 0.7 kg/m3
311.65 K, m1 = 0.8751
  mass density: 1054 ± 0.7 kg/m3
311.85 K, m1 = 0.0831
  mass density: 998.98 ± 0.66 kg/m3
311.9 K, m1 = 4.547
  mass density: 1224.6 ± 0.8 kg/m3
312.1 K, m1 = 0.4247
  mass density: 1024 ± 0.7 kg/m3
312.15 K, m1 = 1.608
  mass density: 1099 ± 0.7 kg/m3
312.3 K, m1 = 6.187
  mass density: 1271.8 ± 0.9 kg/m3
312.45 K, m1 = 2.134
  mass density: 1126.3 ± 0.8 kg/m3
312.55 K, m1 = 0.1671
  mass density: 1004.8 ± 0.7 kg/m3
312.55 K, m1 = 2.622
  mass density: 1149.7 ± 0.8 kg/m3
312.7 K, m1 = 6.545
  mass density: 1279.4 ± 0.9 kg/m3
313.15 K, m1 = 0.0414
  viscosity: 0.6835 ± 0.009 mPa·s
  speed of sound: 1532.2 ± 1.9 m/s
313.15 K, m1 = 0.0831
  viscosity: 0.7037 ± 0.0093 mPa·s
  speed of sound: 1539 ± 1.9 m/s
313.15 K, m1 = 0.1671
  viscosity: 0.7523 ± 0.0099 mPa·s
  speed of sound: 1547.7 ± 1.9 m/s
313.15 K, m1 = 0.4247
  viscosity: 0.9195 ± 0.012 mPa·s
  speed of sound: 1582.3 ± 1.9 m/s
313.15 K, m1 = 0.646
  viscosity: 1.105 ± 0.015 mPa·s
  speed of sound: 1607.4 ± 1.9 m/s
313.15 K, m1 = 0.8751
  viscosity: 1.294 ± 0.017 mPa·s
  speed of sound: 1635.6 ± 1.9 m/s
313.15 K, m1 = 1.106
  viscosity: 1.573 ± 0.021 mPa·s
  speed of sound: 1659.1 ± 2 m/s
313.15 K, m1 = 1.354
  viscosity: 1.887 ± 0.025 mPa·s
  speed of sound: 1679.3 ± 2 m/s
313.15 K, m1 = 1.608
  viscosity: 1.887 ± 0.025 mPa·s
  speed of sound: 1704.6 ± 2 m/s
313.15 K, m1 = 1.866
  viscosity: 2.771 ± 0.037 mPa·s
  speed of sound: 1728.4 ± 2 m/s
313.15 K, m1 = 2.134
  viscosity: 3.404 ± 0.046 mPa·s
  speed of sound: 1752.5 ± 2 m/s
313.15 K, m1 = 2.411
  viscosity: 4.373 ± 0.06 mPa·s
  speed of sound: 1778.6 ± 2 m/s
313.15 K, m1 = 2.622
  viscosity: 4.948 ± 0.068 mPa·s
  speed of sound: 1787.1 ± 2 m/s
313.15 K, m1 = 3.043
  viscosity: 6.797 ± 0.095 mPa·s
  speed of sound: 1815 ± 2.1 m/s
313.15 K, m1 = 3.437
  viscosity: 10.13 ± 0.15 mPa·s
  speed of sound: 1840.3 ± 2.1 m/s
  mass density: 1188 ± 0.8 kg/m3
313.15 K, m1 = 4.001
  viscosity: 15.43 ± 0.23 mPa·s
313.15 K, m1 = 4.563
  viscosity: 24.53 ± 0.38 mPa·s
313.15 K, m1 = 4.929
  viscosity: 30.41 ± 0.5 mPa·s
313.15 K, m1 = 5.41
  viscosity: 54.06 ± 0.68 mPa·s
313.15 K, m1 = 5.732
  viscosity: 71.46 ± 1.3 mPa·s
313.15 K, m1 = 6.187
  viscosity: 120 ± 2.8 mPa·s
313.15 K, m1 = 3.819
  speed of sound: 1854.1 ± 2.1 m/s
313.15 K, m1 = 4.547
  speed of sound: 1878.9 ± 2.1 m/s
313.15 K, m1 = 5.165
  speed of sound: 1896 ± 2.1 m/s
313.35 K, m1 = 0.0414
  mass density: 995.14 ± 0.68 kg/m3
313.45 K, m1 = 1.327
  mass density: 1081.7 ± 0.7 kg/m3
313.45 K, m1 = 1.866
  mass density: 1111.6 ± 0.8 kg/m3
313.45 K, m1 = 3.819
  mass density: 1199.8 ± 0.8 kg/m3
313.5 K, m1 = 1.106
  mass density: 1069.1 ± 0.7 kg/m3
313.5 K, m1 = 3.043
  mass density: 1167.6 ± 0.8 kg/m3
313.55 K, m1 = 5.732
  mass density: 1258.3 ± 0.9 kg/m3
314 K, m1 = 4.547
  mass density: 1223.4 ± 0.8 kg/m3
314.05 K, m1 = 1.354
  mass density: 1082.8 ± 2.5 kg/m3
314.1 K, m1 = 2.411
  mass density: 1140.6 ± 0.8 kg/m3
314.25 K, m1 = 0.646
  mass density: 1038.6 ± 0.7 kg/m3
314.25 K, m1 = 6.187
  mass density: 1270.4 ± 0.9 kg/m3
314.3 K, m1 = 0.8751
  mass density: 1052.9 ± 0.7 kg/m3
314.35 K, m1 = 0.0831
  mass density: 997.91 ± 0.67 kg/m3
314.5 K, m1 = 6.545
  mass density: 1278.1 ± 0.9 kg/m3
314.65 K, m1 = 0.4247
  mass density: 1022.9 ± 0.7 kg/m3
